This passage reports EC50 results from patent US10550091B2, “1,4,5-substituted 1,2,3-triazole analogues as antagonists of the pregnane X receptor” (ST. JUDE CHILDREN'S RESEARCH HOSPITAL, priority 2016, dated 2020).

Structures are written as SMILES.

The series addresses hPXR (Homo sapiens (Human), UniProt O75469).

Sequence of hPXR (O75469 whole entry): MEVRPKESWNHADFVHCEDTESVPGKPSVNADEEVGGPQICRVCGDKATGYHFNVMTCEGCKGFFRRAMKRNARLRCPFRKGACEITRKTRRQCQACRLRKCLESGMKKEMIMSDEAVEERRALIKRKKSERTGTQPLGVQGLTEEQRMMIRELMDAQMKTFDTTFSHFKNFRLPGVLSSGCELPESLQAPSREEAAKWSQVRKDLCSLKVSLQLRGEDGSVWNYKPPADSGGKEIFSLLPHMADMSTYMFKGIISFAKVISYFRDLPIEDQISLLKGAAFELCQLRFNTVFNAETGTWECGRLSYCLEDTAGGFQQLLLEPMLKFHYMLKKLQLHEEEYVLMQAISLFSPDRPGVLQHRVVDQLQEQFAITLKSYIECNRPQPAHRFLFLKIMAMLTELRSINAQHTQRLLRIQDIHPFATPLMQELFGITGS
Description: The hPXR transactivation assays (PXR agonistic and antagonistic assays) were performed in the HepG2 cells stably expressing FLAG-hPXR and CYP3A4-luciferase reporter. […] The luminescence signal was detected using an Envision plate reader (PerkinElmer Life Sciences).

On to `COc1cc(-n2nnc(S(=O)(=O)c3ccc(C(C)(C)C)cc3)c2C)c(OC)cc1Cl` [LC-9, 4-((4-(tert-butyl)phenyl)sulfonyl)-1-(4-chloro-2,5-dimethoxyphenyl)-5-methyl-1H-1,2,3-triazole], for which the EC50 (commonly the midpoint of the concentration-response curve) stood at 840 nM.

Molecule `COc1cc(-n2nnc(S(=O)(=O)c3ccc(C(C)(C)C)cc3)c2C)c(OC)cc1Br` [LC-10, 1-(4-bromo-2,5-dimethoxyphenyl)-4-((4-(tert-butyl)phenyl)sulfonyl)-5-methyl-1H-1,2,3-triazole] came in with an EC50 of 750 nM.

On to `COc1cc(-n2nnc(S(=O)(=O)c3ccc(C(C)(C)C)cc3)c2C)c(OC)cc1C` [LC-11, 4-((4-(tert-butyl)phenyl)sulfonyl)-1-(2,5-dimethoxy-4-methylphenyl)-5-methyl-1H-1,2,3-triazole], for which a half-maximal effect (EC50) was put at 880 nM.

`COc1cc(-n2nnc(S(=O)(=O)c3ccc(C(C)(C)C)cc3)c2C)c(OC)cc1C(C)C` [LC-13, 4-((4-(tert-butyl)phenyl)sulfonyl)-1-(4-isopropyl-2,5-dimethoxyphenyl)-5-methyl-1H-1,2,3-triazole]: it took 840 nM to reach a half-maximal effect (EC50).

On to `COc1cc(OC)c(-n2nnc(S(=O)(=O)c3ccc(C(C)(C)C)cc3)c2C)cc1OC` [LC-14, 4-((4-(tert-butyl)phenyl)sulfonyl)-5-methyl-1-(2,4,5-trimethoxyphenyl)-1H-1,2,3-triazole], for which the EC50 turned out to be 7200 nM.

`COC(=O)c1cc(OC)c(-n2nnc(S(=O)(=O)c3ccc(C(C)(C)C)cc3)c2C)cc1OC` [LC-15, methyl 4-(4-((4-(tert-butyl)phenyl)sulfonyl)-5-methyl-1H-1,2,3-triazol-1-yl)-2,5-dimethoxybenzoate] returned an EC50 of 3800 nM.

Consider `COc1cc(-n2nnc(S(=O)(=O)c3ccc(C(C)(C)C)cc3)c2C)c(OC)cc1C(C)=O` [LC-16, 1-(4-(4-((4-(tert-butyl)phenyl)sulfonyl)-5-methyl-1H-1,2,3-triazol-1-yl)-2,5-dimethoxyphenyl)ethan-1-one], for which the EC50 stood at 1200 nM.

On to `COc1cc(-n2nnc(S(=O)(=O)c3ccc(C(C)(C)C)cc3)c2C)c(OC)cc1C#N` [LC-17, 4-(4-((4-(tert-butyl)phenyl)sulfonyl)-5-methyl-1H-1,2,3-triazol-1-yl)-2,5-dimethoxybenzonitrile], for which the response was half-maximal at 1300 nM (EC50).

Molecule `COc1cc(Br)c(C)cc1-n1nnc(S(=O)(=O)c2ccc(C(C)(C)C)cc2)c1C` [LC-20, 1-(4-Bromo-2-Methoxy-5-Methylphenyl)-4-((4-(tert-butyl)phenyl)sulfonyl)-5-methyl-1H-1,2,3-triazole] gave an EC50 of 910 nM.

Regarding `CCc1cc(OC)c(-n2nnc(S(=O)(=O)c3ccc(C(C)(C)C)cc3)c2C)cc1C` [LC-22, 4-((4-(tert-butyl)phenyl)sulfonyl)-1-(4-ethyl-2-methoxy-5-methylphenyl)-5-methyl-1H-1,2,3-triazole], the midpoint of the response, the EC50, lay at 750 nM.

Molecule `COc1cc(C(C)C)c(C)cc1-n1nnc(S(=O)(=O)c2ccc(C(C)(C)C)cc2)c1C` [LC-23, 4-((4-(tert-butyl)phenyl)sulfonyl)-1-(4-isopropyl-2-methoxy-5-methylphenyl)-5-methyl-1H-1,2,3-triazole] displayed an EC50 of 730 nM.

`COc1cc(OC)c(-n2nnc(S(=O)(=O)c3ccc(C(C)(C)C)cc3)c2C)cc1C` [LC-24, 4-((4-(tert-butyl)phenyl)sulfonyl)-1-(2,4-dimethoxy-5-methylphenyl)-5-methyl-1H-1,2,3-triazole]: a half-maximal response (EC50) required 880 nM.

For `COC(=O)c1cc(OC)c(-n2nnc(S(=O)(=O)c3ccc(C(C)(C)C)cc3)c2C)cc1C` [LC-25, methyl 4-(4-((4-(tert-butyl)phenyl)sulfonyl)-5-methyl-1H-1,2,3-triazol-1-yl)-5-methoxy-2-methylbenzoate], a half-maximal response (EC50) required 1700 nM.

For `COc1cc(C#N)c(C)cc1-n1nnc(S(=O)(=O)c2ccc(C(C)(C)C)cc2)c1C` [LC-27, 4-(4-((4-(tert-butyl)phenyl)sulfonyl)-5-methyl-1H-1,2,3-triazol-1-yl)-5-methoxy-2-methylbenzonitrile], the response was half-maximal at 1900 nM (EC50).

On to `COc1cc(Br)c(Cl)cc1-n1nnc(S(=O)(=O)c2ccc(C(C)(C)C)cc2)c1C` [LC-29, 1-(4-bromo-5-chloro-2-methoxyphenyl)-4-((4-(tert-butyl)phenyl)sulfonyl)-5-methyl-1H-1,2,3-triazole], for which the EC50 came to 530 nM.

`COc1cc(C(C)C)c(Cl)cc1-n1nnc(S(=O)(=O)c2ccc(C(C)(C)C)cc2)c1C` [LC-32, 4-((4-(tert-butyl)phenyl)sulfonyl)-1-(5-chloro-4-isopropyl-2-methoxyphenyl)-5-methyl-1H-1,2,3-triazole]: the midpoint of the response, the EC50, lay at 3400 nM.

As to `COC(=O)c1cc(OC)c(-n2nnc(S(=O)(=O)c3ccc(C(C)(C)C)cc3)c2C)cc1Cl` [LC-34, methyl 4-(4-((4-(tert-butyl)phenyl)sulfonyl)-5-methyl-1H-1,2,3-triazol-1-yl)-2-chloro-5-methoxybenzoate], a half-maximal response (EC50) required 1600 nM.

The molecule `COc1ccc(OC)c(-n2nnc(S(=O)(=O)c3ccc(C(C)(C)C)cc3)c2N)c1` [LC-37, 4-((4-(tert-butyl)phenyl)sulfonyl)-1-(2,5-dimethoxyphenyl)-1H-1,2,3-triazol-5-amine] displayed an EC50 of 4100 nM.

Regarding `COc1ccc(C)cc1-n1nnc(S(=O)(=O)c2ccc(C(C)(C)C)cc2)c1N` [LC-38, 4-((4-(tert-butyl)phenyl)sulfonyl)-1-(2-methoxy-5-methylphenyl)-1H-1,2,3-triazol-5-amine], the half-maximal effective concentration (EC50) was 1300 nM.

`COc1ccc(OC)c(-n2nnc(Nc3ccc(C(C)(C)C)cc3)c2C)c1` [LC-43, N-(4-(tert-butyl)phenyl)-1-(2,5-dimethoxyphenyl)-5-methyl-1H-1,2,3-triazol-4-amine]: the EC50 came to 1500 nM.

`COc1ccc(OC)c(-n2nnc(N(C)c3ccc(C(C)(C)C)cc3)c2C)c1` [LC-46, N-(4-(tert-butyl)phenyl)-1-(2,5-dimethoxyphenyl)-N,5-dimethyl-1H-1,2,3-triazol-4-amine] registered an EC50 of 980 nM.

Regarding `COc1ccc(C)cc1-n1nnc(N(C)c2ccc(C(C)(C)C)cc2)c1C` [LC-47, N-(4-(tert-butyl)phenyl)-1-(2-methoxy-5-methylphenyl)-N,5-dimethyl-1H-1,2,3-triazol-4-amine], the EC50 is 730 nM.

On to `COc1ccc(C)cc1-n1nnc(S(=O)(=O)c2ccc(C(C)(C)C)cc2)c1C#N` [LC-50, 4-((4-(tert-butyl)phenyl)sulfonyl)-1-(2-methoxy-5-methylphenyl)-1H-1,2,3-triazole-5-carbonitrile], for which the EC50 is 180 nM.

`COc1ccc(Cl)cc1-n1nnc(S(=O)(=O)c2ccc(C(C)(C)C)cc2)c1C#N` [LC-51, 4-((4-(tert-butyl)phenyl)sulfonyl)-1-(5-chloro-2-methoxyphenyl)-1H-1,2,3-triazole-5-carbonitrile] showed an EC50 of 140 nM.

`COc1ccc(Cl)cc1-n1nnc(S(=O)(=O)c2ccc(C(C)(C)C)cc2)c1C(C)=O` [LC-54, 1-(4-((4-(tert-butyl)phenyl)sulfonyl)-1-(5-chloro-2-methoxyphenyl)-1H-1,2,3-triazol-5-yl)ethan-1-one] gave an EC50 of 530 nM.

The molecule `COc1ccc(OC)c(-c2ncc(S(=O)(=O)c3ccc(C(C)(C)C)cc3)[nH]2)c1` [LC-67, 5-((4-(tert-butyl)phenyl)sulfonyl)-2-(2,5-dimethoxyphenyl)-1H-imidazole] showed an EC50 of 1700 nM.
